Results from PMC3710446 (Journal of pharmaceutical sciences, 2011).

Experiments:
[1] = tested on: RGC-5 cells; experiment: Uptake of FITC-labeled HIV-1 Tat47–57 in RGC-5 cells; type: cell-based, rat; conditions: FITC-Tat 25 nM, 15 min, NaCl-containing buffer, confocal microscopy
[2] = tested on: SOPT2; experiment: Influence of compounds on [3H]DADLE uptake in RGC-5 cells; type: cell-based, rat; conditions: compound 1 mM; for [3H]DADLE uptake in the presence of compound, % of control (Table 2): [3H]DADLE 10 nM, 30 min, control = 100; for stimulation of [3H]DADLE uptake: p < 0.001
[3] = tested on: SOPT1; experiment: Uptake of [3H]deltorphin II in RGC-5 cells and influence of tripeptides; conditions: RGC-5 cells, deltorphin II 25 nM
[4] = tested on: SOPT2; experiment: Uptake of [3H]DADLE in RGC-5 cells; conditions: DADLE 25 nM, 30 min of incubation

Compound | [3H]DADLE uptake in the presence of compound, % of control (Table 2) [2] [%] | stimulation of [3H]DADLE uptake [2] [%] | further results
FITC-Tat47–57: Fluorescein isothiocyanate-conjugated Tat47–57 peptide |  |  | cellular uptake of FITC-labeled peptide (cell-associated green fluorescence) [1]: enters RGC-5 cells
O=C1CC[C@@]2(O)[C@H]3Cc4ccc(O)c5c4[C@@]2(CCN3CC2CC2)[C@H]1O5 [Naltrexone, naltrexone] | 150 | 50 | 
C=CCN1CC[C@]23c4c5ccc(O)c4O[C@H]2C(=O)CC[C@@]3(O)[C@H]1C5 [Naloxone, naloxone] | 133 | 33 | 
CC(C)[C@H](NC(=O)[C@H](CCC(=O)O)NC(=O)[C@H](Cc1ccccc1)NC(=O)[C@@H](C)NC(=O)[C@@H](N)Cc1ccc(O)cc1)C(=O)N[C@H](C(=O)NCC(N)=O)C(C)C [Deltorphin II] |  |  | uptake of deltorphin II ([3]; absence of Na+): 1.1 ± 0.1 pmol/mg of protein/30 min; uptake of deltorphin II ([3]; presence of Na+): 3.6 ± 0.2 pmol/mg of protein/30 min
CC(C)C[C@@H](NC(=O)[C@H](Cc1ccccc1)NC(=O)CNC(=O)[C@@H](C)NC(=O)[C@@H](N)Cc1ccc(O)cc1)C(=O)O [DADLE, [D-Ala^2, D-Leu^5]-Enkephalin] |  |  | uptake in the presence of Na+ relative to uptake in the absence of Na+ [4]: 2–3 times
